These results are taken from patent US20140039004A1, “METHOD OF TREATING OF GASTROESOPHAGEAL REFLUX DISEASE” (ONO PHARMACEUTICAL CO., LTD., priority 2012, published 2014).

Where two headings read alike, the source gives them in different places. Where only a bound is given, the exact number is not on record here.

Common to all, as to type: in vivo, Cynomolgus monkeys
Data set [1] relates to transient lower esophageal sphincter relaxation. The data set is described as follows: Action on transient lower esophageal sphincter relaxation (TLESR) (2). The note with it: 0.01 and 0.1 mg/kg s.c. 30 min before high-fat diet and air injection; measured for 45 minutes; vs vehicle-administered group; FIG. 3. As for the experimental part:
Cynomolgus monkeys (aged 4 to 6 years, female, Japan Laboratory Animals, Inc., no history of administration) were acclimated to a monkey chair for 2 days or more, and were fasted for 12 hours or more. After that, on the day of experiment, the monkeys were immobilized in the monkey chair after the measurement of body weight, and was acclimated for another one hour or more. A high-fat diet/air injection catheter and a sensor catheter for measuring pressure were inserted from a nostril and the oral cavity. A high-fat diet was injected into the stomach so that the final volume would be 80 mL, and air was then injected up to a pressure in the stomach of 20 mmHg, and maintained. The pressure in the esophagus was measured by a sensor catheter in the lower esophageal sphincter region and the positions approximately 2, 3 and 6 cm above the lower esophageal sphincter. […] The frequency of TLESR was measured for 45 minutes from the injection of high-fat diet to the end of ventilation. Here, TLESR was measured considering that the relaxation response of the lower esophageal sphincter region was longer by […] and was not elicited by peristaltic motion occurring in the esophagus, and the rate of reduction of pressure was greater than […], and measured. […]

The subject of data set [2] is hypersensitivity in the esophagus evoked by continuous electrical stimulation. Put plainly: Hypersensitivity model evoked by electrical stimulation (nociceptive threshold). As for the experimental part: Cynomolgus monkeys (aged 4 to 6 years, female, Japan Laboratory Animals, Inc., no history of administration) were acclimated to a monkey chair for 2 days or more, and were fasted for 12 hours or more. After that, on the day of experiment, the monkeys were immobilized in the monkey chair after the measurement of body weight, and were acclimated for another one hour or more. An electrostimulation catheter was inserted from a nostril, and electrical stimulation was applied at the position approximately 10 cm above the cardiac part of stomach (the upper esophagus). […] This was carried out three times every 2 to 3 minutes at each evaluation time point, and the average value was used as a nociceptive behavior threshold at each time point. Hypersensitivity was induced by continuous electrical stimulation to the position approximately 3 cm above the cardiac region (the lower esophagus). That is, an electrostimulation catheter was inserted from a nostril, and electrical stimulation was applied at the position of the lower esophagus for 30 minutes. […] The endpoint was assessed by comparing the nociceptive thresholds before and after continuous electrical stimulation, the nociceptive threshold of the vehicle-administered group at each time point and the nociceptive threshold of the Compound A-administered group at each time point. […]

Data set [3] deals with hypersensitivity in the esophagus evoked by hydrochloric acid perfusion. Put plainly: Hypersensitivity model evoked by acid (nociceptive threshold to esophageal electrical stimulation). As for the experimental part:
Cynomolgus monkeys (aged 4 to 6 years, female, Japan Laboratory Animals, Inc., no history of administration) were acclimated to a monkey chair for 2 days or more, and were fasted for 12 hours or more. After that, on the day of experiment, the monkeys were immobilized in the monkey chair after the measurement of body weight, and were acclimated for another one hour or more. An electrostimulation catheter was inserted from a nostril, and electrical stimulation was applied at the position approximately 10 cm above the cardiac part of stomach (the upper esophagus). […] This was carried out three times every 2 to 3 minutes at each evaluation time point, and the average value was used as a nociceptive threshold at each time point. Saline or hydrochloric acid (1.5 N) was perfused from the position approximately 3 cm above the cardiac region (the lower esophagus) to the stomach at an injection rate of 160 mL/h for 30 minutes. The nociceptive thresholds were measured before and after perfusion of saline in the esophagus, before perfusion of hydrochloric acid in the esophagus and at 0, 30, 60, 90 and 120 minutes after perfusion of hydrochloric acid in the esophagus. The vehicle or Compound A (0.01 and 0.1 mg/kg, respectively) was subcutaneously administered 30 minutes before the start of the perfusion of hydrochloric acid. […] The endpoint was assessed by comparing the nociceptive thresholds before and after perfusion of hydrochloric acid, the nociceptive threshold of the vehicle-administered group at each time point and the nociceptive threshold of the Compound A-administered group at each time point. […]

Data set [4] can be described thus: Evaluation of penetration into the center (plasma, CSF and tissue concentration by LC/MS/MS). The note with it: female, cynomolgus monkey, subcutaneous, 0.1 mg/kg s.c., 180 minutes after administration; for concentration at 180 min: n=3. As for the experimental part: Cynomolgus monkeys (aged 4 to 6 years, female, Japan Laboratory Animals, Inc., no history of administration) were immobilized in a monkey chair, and Compound A was subcutaneously administered thereto (0.1 mg/kg), followed by collecting blood at 180 minutes after administration. The blood samples were centrifuged at 10000 g at 4° C. for 3 minutes to collect plasma. Next, the cerebrospinal fluid was collected under anesthesia by intravenous administration of pentobarbital sodium, and the lower esophagus, the upper esophagus, the dorsal root ganglion, the spinal cord and the brain stem were then collected. Furthermore, the dorsal root ganglion and the spinal cord were collected from the first to sixth thoracic spinal cord, which controls esophageal nerves. To the collected tissue, 4 times the amount of saline per wet weight of each tissue was added, followed by homogenization using Physcotron to obtain each tissue homogenate. The number of animals was 3.
The concentration of Compound A in each tissue was measured by a LC/MS/MS method.
To the samples for 50 μL of a calibration curve and test samples of Compound A, 1 mL of ultrapure water and an internal standard substance were added under ice cold conditions, followed by stirring. To a solid phase extraction cartridge (OAS1S MAX 30 mg/1 cc, Waters Corporation) which had been conditioned in advance, each sample was loaded and washing was carried out, followed by centrifugation, and a cleaning liquid was discharged from the cartridge for drying. Further, elution was carried out with 1 mL of an acetonitrile/acetic acid mixed liquid (49:1), and the eluate was concentrated and dried under a current of nitrogen (40° C. or less). The residue was redissolved in 200 μL of a methanol/0.1 vol % acetic acid solution (70: 30) to obtain a sample for the measurement of LC/MS/MS.
The analysis by LC/MS/MS was carried out under the following conditions.
Measuring device: Nanospace 3033 (Shiseido Co., Ltd.) Analysis column: SunFire C18 3.5 μm (2.1 mm i.d.×100 mm, 3.5 μm, Waters Corporation) Mobile phase: Acetonitrile/0.1 vol % acetic acid solution (70: 30) Cleaning liquid for cleaning port (one component): 2-propanol Cleaning liquid for cleaning port (two components): Mobile phase [acetonitrile/0.1 vol % acetic acid solution (70: 30)] Flow rate: 0.2 mL/min Column temperature: 35° C. Sample temperature: 4° C. Analysis time: 13 minutes
Measuring device: API4000 (AB SCIEX) Ion source: ESI Scan type: MRM
Using the peak area ratio (standard substance/internal standard substance) obtained by the measurement of a sample for a calibration curve, the calibration curve (y=aX+b, Y: Peak area ratio, X: Concentration) was made from the single regression line by the least squares method, and the peak area ratios of test samples were applied to the calibration curve to calculate a measured value.

For `Cc1cc(C(=O)O)ccc1COc1cc2c(cc1N(CC(C)C)S(=O)(=O)c1nccs1)CCC2` [Compound A, 4-[({6-[isobutyl(1,3-thiazol-2-ylsulfonyl)amino]-2,3-dihydro-1H-inden-5-yl}oxy)methyl]-3-methyl benzoic acid], the “frequency of TLESR” value in data set [1] was “dose-dependently decreased”. The “decrease in nociceptive threshold after continuous electrical stimulation” value in data set [2] (0.1 mg/kg s.c. 30 min before 30 min electrical stimulation of lower esophagus, FIG. 2) is “suppressed to a normal level”. In addition, in data set [2] (0.1 mg/kg s.c., time after end of continuous electrical stimulation), the “duration of suppressive action after continuous electrical stimulation” value is at least 120 min. Further, the “nociceptive threshold after hydrochloric acid perfusion” value in data set [3] (0.1 mg/kg s.c. 30 min before HCl perfusion, FIG. 1) was “suppressed to a normal level”. In addition, the “decrease in nociceptive threshold after hydrochloric acid perfusion” value in data set [3] (Compound A 0.01 and 0.1 mg/kg s.c. 30 min before HCl (1.5 N) perfusion, vs control group, FIG. 1) was “dose-dependently suppressed”. In data set [3] (Compound A-administered groups, s.c., time after end of HCl perfusion), the “duration of suppressive action after hydrochloric acid perfusion” value was at least 120 min. Besides, the Kp at 180 min in data set [4] (brain stem / plasma, read-out: percentage to the concentration in plasma, brain stem tissue) was determined as 0.057; in data set [4] (cerebrospinal fluid / plasma, read-out: percentage to the concentration in plasma, cerebrospinal fluid), 0.019; in data set [4] (dorsal root ganglion / plasma, read-out: percentage to the concentration in plasma, dorsal root ganglion) it was 0.163; in data set [4] (lower esophagus / plasma, read-out: percentage to the concentration in plasma, lower esophagus), 0.067; in data set [4] (spinal cord / plasma, read-out: percentage to the concentration in plasma, spinal cord) it was 0.051; in data set [4] (upper esophagus / plasma, read-out: percentage to the concentration in plasma, upper esophagus) it was 0.073. Further, the concentration at 180 min in data set [4] (brain stem, tissue homogenate, read-out: average concentration in brain stem tissue) came out at 0.22 ng/mL; in data set [4] (cerebrospinal fluid, read-out: average concentration in cerebrospinal fluid) it was 0.07 ng/mL; in data set [4] (dorsal root ganglion, tissue homogenate, read-out: average concentration in dorsal root ganglion), 0.62 ng/mL; in data set [4] (lower esophagus, tissue homogenate, read-out: average concentration in lower esophagus), 0.25 ng/mL; in data set [4] (plasma, read-out: average concentration in plasma), 3.79 ng/mL; in data set [4] (spinal cord, tissue homogenate, read-out: average concentration in spinal cord) it was 0.19 ng/mL. Also, in data set [4] (upper esophagus, tissue homogenate, read-out: average concentration in upper esophagus), the concentration at 180 min is 0.28 ng/mL.
